Literature values in patent US7056534B2, “Coated potassium chloride granules and tablets” (Upsher-Smith Laboratories, Inc., priority 2001, dated 2006).
Read-outs that look alike come from different tables or passages of the source.

**Q.** With `[Cl-].[K+]` [Potassium chloride] as the molecule, how does the Solubility (acetone) read?
**A.** insoluble

**Q.** What about the “Volume of solvent in which 1 gram dissolves” value (from here on “Volume of solvent”) (boiling water) of the same molecule?
**A.** 1.8 mL

**Q.** And the Solubility (ether)?
**A.** insoluble

**Q.** What about the “Volume of solvent” value (ethyl alcohol) of the same molecule?
**A.** about 250 ml

**Q.** What about the “Volume of solvent” value (glycerol) of the same molecule?
**A.** 14 mL

**Q.** What about the “Volume of solvent” value (water) of the same molecule?
**A.** 2.8 mL
